These results are taken from a melting point compilation (Tetko et al.; mined from patent text by program, amines drawn as free bases though some values may be those of a salt).

In turn, `CCCCCCC(=O)OCCOC(=O)NC1(C(=O)O)CC1` showed a melting point of 113 °C.
Take `OCc1cn2c(n1)CN=C(c1ccccc1)c1cc(Cl)ccc1-2`: the melting point was 203 to 204 °C.
Compound `O=C1NC(=O)C(Cc2ccc(C(=O)CCc3ccccc3)cc2)S1` (centres undefined) had a melting point of 119 to 121 °C.
`CS(=O)(=O)Nc1ccc(-c2ccc(S(=O)(=O)n3ccc(C=CC(=O)NO)c3)cc2)cc1` came in with a melting point of 160 to 167 °C.
On to `CCCOc1ccc(S(=O)(=O)NCc2ccncc2)cc1-c1nc2cc(N)c([N+](=O)[O-])cc2c(=O)[nH]1`, for which the melting point fell in the range of 157 to 160 °C.
Regarding `COC1CN(CCC(C(=O)N(C)C)(c2ccccc2)c2ccccc2)CCC1NC(=O)c1ccccc1` (centres undefined), the melting point was found to be 147 °C.
As for `NS(=O)(=O)c1ccc(NC(=O)NCCCCCCNC(=O)n2cc(F)c(=O)[nH]c2=O)cc1`, the figure is 181 to 184 °C.
Turning to `CC(Cl)C(=O)Nc1ccccc1C(=O)CC(=O)Nc1nccs1` (centres undefined), the melting point worked out at 204 °C.
Consider `CCCC(NOCC)=C1C(=O)CC(c2cc3ccccc3[nH]c2=O)CC1=O` (centres undefined), for which the melting point lay within 155 to 157 °C.
The compound `OCCn1c(NC2CCN(Cc3ccccc3)CC2)nc2cccnc21` had a melting point of 126 °C.
`COC(=O)c1ccc2cc(-c3cc4c(c(C56CC7CC(CC(C7)C5)C6)c3)OCO4)ccc2c1`: the melting point is 217 to 220 °C.
With `CN(Cc1cccc2c1CN(C1CCC(=O)NC1=O)C2=O)C(=O)Nc1ccccc1` (centres undefined), the melting point lay within 186 to 188 °C.
As for `CN1CC(=O)N(c2cccnc2)C1=S`, the figure is 149 to 151 °C; as for `O=c1[nH]c(=Cc2ccc(OCc3ccccc3)cn2)c(=O)[nH]c1=Cc1ccccn1`, 248 to 250 °C.
`Cc1cc(SCc2sc(-c3ccc(C(F)(F)F)c(F)c3)nc2C)ccc1OCC(=O)O`: the melting point is below 50 °C.
With `COC(=O)C(C#N)=C(C=CN(C)C)c1ccc(OC)cc1`, the melting point was in the range of 175 to 178 °C.
As for `O=C(O)CCCCC(=NOCc1ccc(OCc2noc(-c3ccccc3)n2)cc1)c1ccccc1`, the figure is 88 to 89 °C; as for `COc1ccc(C(=O)Nc2ccc(-c3ccc(S(C)=O)cc3)cc2)cc1CCCN(C)C` (centres undefined), 190 to 192 °C.
`O=C(Cn1nc2ccccc2n1)Nc1ccc(-n2nc(C(F)(F)F)cc2C2CC2)cc1` gave a melting point of 188 to 192 °C.
In turn, `CN(C)Cc1cc(Oc2ccc3c(C(=O)Nc4cccc(C(F)(F)F)c4)cccc3c2)ncn1` returned a melting point of 180 to 181 °C.
As for `O=S(=O)(CC=Cc1ccccc1)CCCO`, the figure is 86 °C; as for `O=C1C(=O)c2ccccc2C2=C1SCC1(CCN(S(=O)(=O)c3ccc(Cl)c(Cl)c3)CC1)O2`, 275 to 276 °C; as for `COc1cc2c(cc1OC)C(C(c1ccccc1)N1CCCCC1)OC2=O` (centres undefined), 213 to 214 °C.
The compound `CCCCc1nc2c(N)nc3cc(-c4ccc(OCCC)cc4)ccc3c2n1CC(C)C` came in with a melting point of 194 to 197 °C.
`O=C(NOCC(O)CN1CCCCC1)Nc1cccc([N+](=O)[O-])c1` (centres undefined) yielded a melting point of 137 to 139 °C.
`CCCc1ccc(C(=O)OCC)n1Cc1ccc(-c2ccccc2C(=O)O)cc1` registered a melting point of 111 to 115 °C.
In the case of `CC(=O)Nc1scc(C)c1C(=O)c1ccccc1`, the melting point lay in the range of 106 to 107 °C.
Compound `O=C(NCCOCc1ccc(C(=O)c2ccccc2)cc1)Nc1ccccc1` yielded a melting point of 129 to 132 °C.
Consider `O=C1N(Cc2ncccn2)c2ccccc2C12COc1cc3c(cc12)CCO3` (centres undefined), for which the melting point is 203 to 205 °C.
For `CN(C)C=NS(=O)(=O)c1ccc(Br)cc1`, the melting point lay within 141 to 143 °C.
The compound `C=CCc1c(O)ccc2c(C)c(CC(=O)OC)c(=O)oc12` displayed a melting point of 160 to 162 °C.
On to `CCOCc1nc2c(N)nc(C)c(C)c2n1CCN`, for which the melting point was 163 to 166 °C.
`Cn1nc(CBr)cc1C(=O)NCCc1ccccc1` yielded a melting point of 112 to 113 °C.
Regarding `CCOC(=O)C=Cc1ccc(Cl)c(Cl)c1`, the melting point turned out to be 56 °C.
